Measured values published in article PMC7179112, “Antimicrobial, Antioxidant, and Anticancer Activities of Some Novel Isoxazole Ring Containing Chalcone and Dihydropyrazole Derivatives” (Molecules, 2020).
Converted amounts (≈) assume the structure as drawn.

System: Pseudomonas aeruginosa
Assay: Antibacterial activity, serial tube dilution method
Type: cell-based
Conditions: Pseudomonas aeruginosa; Gram-negative; serial tube dilution; read-out: MIC P aeruginosa
Experimental: (§1) The target chalcones (17–31) and pyrazolines (32–46) were tested for their antimicrobial activities by serial tube dilution method against two types of bacterial and fungal strains (Table 1 and Table 2). The bacterial strains used for the testing, including Gram-positive Staphylococcus aureus and Gram-negative Pseudomonas aeruginosa, whereas the fungal strains employed were Aspergillus niger and Candida tropicalis.
(§2) The antibacterial and antifungal activity of the novel chalcones (17 to 31) and dihydropyrazoles (32 to 46) against the selected bacterial and fungal strains was assessed by following the procedure described in our previous paper.

Compared with `COc1cccc(/C=C/C(=O)c2ccno2)c1` [Compound 18], `COc1cc(/C=C/C(=O)c2ccno2)cc(OC)c1` [Compound 25] is 2-fold higher in MIC: 128 µg/mL (≈ 558 µM) for the first, 256 µg/mL (≈ 987 µM) for the second.

Going from `COc1cc(/C=C/C(=O)c2ccno2)cc(OC)c1OC` [Compound 29] to `COc1cc(OC)c(/C=C/C(=O)c2ccno2)c(OC)c1` [Compound 28], the MIC falls from 128 µg/mL (≈ 442 µM) to 1 µg/mL (≈ 3.46 µM) (130-fold).

First: COc1ccc(/C=C/C(=O)c2ccno2)c(OC)c1OC [Compound 26]
Second: COc1cc(OC)c(C2CC(c3ccno3)=NN2C(N)=O)c(OC)c1 (centres unmarked) [Compound 43]
The MIC of the first is 16-fold higher: 64 µg/mL (≈ 221 µM) for the first, 4 µg/mL (≈ 11.5 µM) for the second.

Same assay, conditions: second of two values; P aeruginosa inferred from Table 2

With `COc1cc(OC)c(C2CC(c3ccno3)=NN2C(N)=O)c(OC)c1` (centres unmarked) [Compound 43] the “fold improvement in the antibacterial activity compared to compound 38” value was 4 fold.

System: Staphylococcus aureus
Assay: as above
Type: cell-based
Conditions: Staphylococcus aureus; Gram-positive; serial tube dilution; read-out: MIC S aureus
Experimental: as §1, §2

Going from `COc1cccc(/C=C/C(=O)c2ccno2)c1` [Compound 18] to `COc1cc(/C=C/C(=O)c2ccno2)cc(OC)c1` [Compound 25], the MIC rises from 128 µg/mL (≈ 558 µM) to 256 µg/mL (≈ 987 µM) (2-fold).

Compared with `COc1cc(/C=C/C(=O)c2ccno2)cc(OC)c1OC` [Compound 29], `COc1cc(OC)c(/C=C/C(=O)c2ccno2)c(OC)c1` [Compound 28] is 64-fold lower in MIC: 64 µg/mL (≈ 221 µM) for the first, 1 µg/mL (≈ 3.46 µM) for the second.

Compared with `COc1ccc(/C=C/C(=O)c2ccno2)c(OC)c1OC` [Compound 26], `COc1cc(OC)c(C2CC(c3ccno3)=NN2C(N)=O)c(OC)c1` (centres unmarked) [Compound 43] is 16-fold lower in MIC: 64 µg/mL (≈ 221 µM) for the first, 4 µg/mL (≈ 11.5 µM) for the second.

Same assay, conditions: first of two values; S aureus inferred from Table 2

In the case of `COc1cc(OC)c(C2CC(c3ccno3)=NN2C(N)=O)c(OC)c1` (centres unmarked) [Compound 43], the “fold improvement in the antibacterial activity compared to compound 38” value is reported as 8 fold.

System: Aspergillus niger
Assay: Antifungal activity, serial tube dilution method
Type: cell-based
Conditions: not given
Experimental: as §1, §2

`COc1cccc(/C=C/C(=O)c2ccno2)c1` [Compound 18] and `COc1cc(/C=C/C(=O)c2ccno2)cc(OC)c1` [Compound 25] are the same in MIC: 256 µg/mL (≈ 1120 µM) for the first, 256 µg/mL (≈ 987 µM) for the second.

Compared with `COc1cc(/C=C/C(=O)c2ccno2)cc(OC)c1OC` [Compound 29], `COc1cc(OC)c(/C=C/C(=O)c2ccno2)c(OC)c1` [Compound 28] is 64-fold lower in MIC: 128 µg/mL (≈ 442 µM) for the first, 2 µg/mL (≈ 6.91 µM) for the second.

First: COc1ccc(/C=C/C(=O)c2ccno2)c(OC)c1OC [Compound 26]
Second: COc1cc(OC)c(C2CC(c3ccno3)=NN2C(N)=O)c(OC)c1 (centres unmarked) [Compound 43]
The MIC of the first is 64-fold higher: 128 µg/mL (≈ 442 µM) for the first, 2 µg/mL (≈ 5.77 µM) for the second.

System: Candida tropicalis
Assay: Antifungal activity, serial tube dilution method
Type: cell-based
Conditions: read-out: MIC C tropicalis
Experimental: as §1, §2

Compared with `COc1cccc(/C=C/C(=O)c2ccno2)c1` [Compound 18], `COc1cc(/C=C/C(=O)c2ccno2)cc(OC)c1` [Compound 25] is 2-fold higher in MIC: 256 µg/mL (≈ 1120 µM) for the first, 512 µg/mL (≈ 1970 µM) for the second.

First: COc1cc(/C=C/C(=O)c2ccno2)cc(OC)c1OC [Compound 29]
Second: COc1cc(OC)c(/C=C/C(=O)c2ccno2)c(OC)c1 [Compound 28]
The MIC of the first is 130-fold higher: 256 µg/mL (≈ 885 µM) for the first, 2 µg/mL (≈ 6.91 µM) for the second.

First: COc1ccc(/C=C/C(=O)c2ccno2)c(OC)c1OC [Compound 26]
Second: COc1cc(OC)c(C2CC(c3ccno3)=NN2C(N)=O)c(OC)c1 (centres unmarked) [Compound 43]
The MIC of the first is 64-fold higher: 128 µg/mL (≈ 442 µM) for the first, 2 µg/mL (≈ 5.77 µM) for the second.

System: not listed separately
Assay: DPPH free radical scavenging assay
Conditions: antioxidant activity; average of three independent experiments
Experimental: The antioxidant activity of all 30 compounds was assessed using 1,1-diphenyl-2-picrylhydrazine (DPPH) free radical scavenging assay and the results are the average of three independent experiments (Table 3). Gallic acid was employed as a positive control. […] In the disubstituted series (20–25), compound 25 with substitutions at position 3 and 5 on the phenyl ring gave the highest activity of 9 µg/mL.
The purpose of this study was to evaluate the antioxidant activity of chalcones and pyrazolines using the DPPH free radical assay. The percentage of antioxidant activity (AA%) of all the compounds was assessed by the DPPH free radical assay. The measurement of the DPPH radical scavenging activity was performed according to methodology described by Brand-Williams et al. The samples were reacted with the stable DPPH radical in an ethanol solution. A 0.1 mM solution of DPPH was prepared by dissolving DPPH in methanol. Gallic acid was taken as a reference standard and different concentrations of test samples (5–100 µg/mL) and standard (1.0, 2.5, and 5.0 µg/mL) were prepared using methanol. One milliliter of 0.1 mM DPPH solution was added to 3 mL of all concentrations of test samples and standard separately. These mixtures were kept in dark for about 30 min and the absorbance was measured at 517 nm. The capability to scavenge the DPPH radical was calculated using the formula:(1) DPPH scavanged (%)= Absorbance of control−Absorbance of sample/Absorbance of control∗100 when DPPH reacted with an antioxidant compound and was reduced, the change in color (from deep violet to light yellow) was read [Absorbance (Abs)] at 517 nm after […] of reaction using a UV-VIS spectrophotometer.

Going from `COc1cccc(/C=C/C(=O)c2ccno2)c1` [Compound 18] to `COc1cc(/C=C/C(=O)c2ccno2)cc(OC)c1` [Compound 25], the “DPPH assay IC50” value falls from 38 ± 2 µg/mL to 9 ± 1 µg/mL (4.2-fold).

`COc1cc(/C=C/C(=O)c2ccno2)cc(OC)c1OC` [Compound 29] and `COc1cc(OC)c(/C=C/C(=O)c2ccno2)c(OC)c1` [Compound 28] are within error of each other in “DPPH assay IC50” value: 8 ± 2 µg/mL for the first, 5 ± 1 µg/mL for the second.

`COc1ccc(/C=C/C(=O)c2ccno2)c(OC)c1OC` [Compound 26] and `COc1cc(OC)c(C2CC(c3ccno3)=NN2C(N)=O)c(OC)c1` (centres unmarked) [Compound 43] are the same in “DPPH assay IC50” value: 6 ± 1 µg/mL for the first, 6 ± 1 µg/mL for the second.

System: prostate cancer cell line, DU-145
Assay: MTT assay anticancer activity
Type: cell-based
Conditions: Homo sapiens, MTT assay, mean ± SD (n = 3)
Experimental: All the 30 compounds were evaluated for their anticancer potency against the prostate cancer cell line, DU-145, employing colorimetric tetrazolium dye (MTT) assay. […] Among the disubstituted series 20–25, substitution at position 3 and 4 (compound 24) produced the best activity but was lower than the standard. […] Similar phenomena can be seen among the dihydropyrazole series.
The in vitro anticancer activity of chalcones (17 to 31) and dihydropyrazoles (32 to 46) was evaluated by the Mosmann’s MTT assay as described previously.

Going from `COc1cccc(/C=C/C(=O)c2ccno2)c1` [Compound 18] to `COc1cc(/C=C/C(=O)c2ccno2)cc(OC)c1` [Compound 25], the IC50 falls from 20 ± 1 µg/mL (≈ 87.2 µM) to 12 ± 1 µg/mL (≈ 46.3 µM) (1.7-fold).

Going from `COc1cc(/C=C/C(=O)c2ccno2)cc(OC)c1OC` [Compound 29] to `COc1cc(OC)c(/C=C/C(=O)c2ccno2)c(OC)c1` [Compound 28], the IC50 rises from 8 ± 2 µg/mL (≈ 27.7 µM) to 30 ± 2 µg/mL (≈ 104 µM) (3.8-fold).

Compared with `COc1ccc(/C=C/C(=O)c2ccno2)c(OC)c1OC` [Compound 26], `COc1cc(OC)c(C2CC(c3ccno3)=NN2C(N)=O)c(OC)c1` (centres unmarked) [Compound 43] is 2.1-fold higher in IC50: 10 ± 2 µg/mL (≈ 34.6 µM) for the first, 21 ± 2 µg/mL (≈ 60.6 µM) for the second.

System: Human Normal Cells (L02)
Assay: MTT assay toxicity on normal cells
Type: cell-based
Conditions: not given

`COc1cccc(/C=C/C(=O)c2ccno2)c1` [Compound 18] and `COc1cc(/C=C/C(=O)c2ccno2)cc(OC)c1` [Compound 25] cannot be ordered by IC50: over 40 µg/mL for the first, over 40 µg/mL for the second.

`COc1cc(/C=C/C(=O)c2ccno2)cc(OC)c1OC` [Compound 29] and `COc1cc(OC)c(/C=C/C(=O)c2ccno2)c(OC)c1` [Compound 28] cannot be ordered by IC50: over 40 µg/mL for the first, over 40 µg/mL for the second.

`COc1ccc(/C=C/C(=O)c2ccno2)c(OC)c1OC` [Compound 26] and `COc1cc(OC)c(C2CC(c3ccno3)=NN2C(N)=O)c(OC)c1` (centres unmarked) [Compound 43] cannot be ordered by IC50: over 40 µg/mL for the first, over 40 µg/mL for the second.

System: Staphylococcus aureus and Pseudomonas aeruginosa
Assay: Antibacterial activity (strain not named)
Type: cell-based
Conditions: text/figure value, strain not named
Experimental: as §1, §2

First: COc1cc(OC)c(/C=C/C(=O)c2ccno2)c(OC)c1 [Compound 28]
Second: COc1cc(OC)c(C2CC(c3ccno3)=NN2C(N)=O)c(OC)c1 (centres unmarked) [Compound 43]
The MIC of the first is 4-fold lower: 1 µg/mL (≈ 3.46 µM) for the first, 4 µg/mL (≈ 11.5 µM) for the second.

In the case of `COc1cc(OC)c(/C=C/C(=O)c2ccno2)c(OC)c1` [Compound 28], the “antibacterial MIC” value is reported as 1 µg/mL.

System: Aspergillus niger and Candida tropicalis
Assay: Antifungal activity (strain not named)
Type: cell-based
Conditions: text/figure value, strain not named
Experimental: as §1, §2

`COc1cc(OC)c(/C=C/C(=O)c2ccno2)c(OC)c1` [Compound 28] and `COc1cc(OC)c(C2CC(c3ccno3)=NN2C(N)=O)c(OC)c1` (centres unmarked) [Compound 43] are the same in MIC: 2 µg/mL (≈ 6.91 µM) for the first, 2 µg/mL (≈ 5.77 µM) for the second.

System: bacterial and fungal strains (S. aureus, P. aeruginosa, A. niger, C. tropicalis)
Assay: Antibacterial and antifungal activity (all strains)
Type: cell-based
Conditions: range over bacterial and fungal strains
Experimental: as §1, §2

`COc1cccc(/C=C/C(=O)c2ccno2)c1` [Compound 18] and `COc1cc(/C=C/C(=O)c2ccno2)cc(OC)c1` [Compound 25] fall in the same range of MIC: 64 to 256 µg/mL (≈ 279 to 1120 µM) for the first, 64 to 256 µg/mL (≈ 247 to 987 µM) for the second.

`COc1cc(/C=C/C(=O)c2ccno2)cc(OC)c1OC` [Compound 29] and `COc1ccc(/C=C/C(=O)c2ccno2)c(OC)c1OC` [Compound 26] fall in the same range of MIC: 64 to 256 µg/mL (≈ 221 to 885 µM) for the first, 64 to 256 µg/mL (≈ 221 to 885 µM) for the second.
